Source: patent US20080234266A1, “Squaric Acid Derivatives II” (priority 2005, published 2008)

Molecular target: T1, CHK1 kinase (Homo sapiens, UniProt O14757)
T1 construct: glutathione S-transferase (GST); made in house; host or cells: Sf21 insect cells (S. frugiperda), baculovirus
T1 sequence (O14757 1-476): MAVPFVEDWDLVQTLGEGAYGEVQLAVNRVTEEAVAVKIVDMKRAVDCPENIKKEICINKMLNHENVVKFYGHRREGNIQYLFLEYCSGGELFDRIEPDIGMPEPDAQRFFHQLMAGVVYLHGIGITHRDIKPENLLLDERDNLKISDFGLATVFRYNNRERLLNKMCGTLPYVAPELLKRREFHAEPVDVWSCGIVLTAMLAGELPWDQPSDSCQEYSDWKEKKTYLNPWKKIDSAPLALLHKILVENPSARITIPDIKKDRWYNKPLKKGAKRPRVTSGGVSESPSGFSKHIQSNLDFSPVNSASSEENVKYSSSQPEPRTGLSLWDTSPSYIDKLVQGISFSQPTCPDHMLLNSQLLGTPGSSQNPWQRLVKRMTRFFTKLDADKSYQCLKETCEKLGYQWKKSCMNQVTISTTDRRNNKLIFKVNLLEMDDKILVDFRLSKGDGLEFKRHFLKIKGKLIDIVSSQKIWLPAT
Test: Flashplate method (CHK1), measurement of the CHK1 kinase activity
Type: biochemical
Conditions: class symbols; 'Affinity to receptors'
How it was run: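 GST-tagged CHK1 expressed in Sf21 insect cells, incubated at 30 °C with biotinylated CHKtide (0.15 μg per well) and γ33P-ATP in pH 7.5 buffer (EGTA, Mg acetate, mercaptoethanol, 0.1% BSA). Stopped with EDTA, captured on streptavidin Flashplates and counted by scintillation. IC50 set against uninhibited reaction and 0.1 μM staurosporine as zero.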

IC50	SMILES
> 1000 nM	Cc1ccc(CC(O)c2cccc(CNc3c(Nc4ccc5[nH]cnc5c4)c(=O)c3=O)c2)cc1 (stereo not drawn) [Compound A161, 3-(1H-benzimidazol-5-ylamino)-4-[3-(1-hydroxy-2-p-tolylethyl)benzylamino]cyclobut-3-ene-1,2-dione]
> 1000 nM	O=c1c(NCc2ccc(Cl)c(Cl)c2)c(Nc2ccc3[nH]cnc3c2)c1=O [Compound A162, 3-(1H-benzimidazol-5-ylamino)-4-(3,4-dichlorobenzylamino)cyclobut-3-ene-1,2-dione]
> 1000 nM	O=c1cnc2ccc(CNc3c(Nc4ccc5[nH]cnc5c4)c(=O)c3=O)cc2[nH]1 [Compound A163, 3-(1H-benzimidazol-5-ylamino)-4-[(3-oxo-3,4-dihydroquinoxalin-6-ylmethyl)amino]cyclobut-3-ene-1,2-dione]
> 1000 nM	O=c1c(NCc2cccc(OC(F)F)c2)c(Nc2ccc3nc[nH]c3c2)c1=O [Compound A164, 3-(3H-benzimidazol-5-ylamino)-4-(3-difluoro-methoxybenzylamino)cyclobut-3-ene-1,2-dione]
> 1000 nM	CCN(CC)CCn1cnc2ccc(Nc3c(NCc4ccc(-c5nnn[nH]5)cc4)c(=O)c3=O)cc21 [Compound A167, 3-[3-(2-diethylaminoethyl)-3H-benzimidazol-5-ylamino]-4-[4-(1H-tetrazol-5-yl)benzyl-amino]cyclobut-3-ene-1,2-dione]
> 1000 nM	CCN(CC)CCn1cnc2cc(Nc3c(N[C@H](C)c4cccc(OC)c4)c(=O)c3=O)ccc21 [Compound A168, 3-[1-(2-diethylaminoethyl)-1H-benzimidazol-5-ylamino]-4-[(R)-1-(3-methoxyphenyl)ethyl-amino]cyclobut-3-ene-1,2-dione]
